This note sets out measurements from US8785499B2 (priority 2009, dated 2014).

Structures are written as SMILES.

One experiment has as its target ecNadD (Escherichia coli (strain K12), UniProt P0A752). In words: biochemical. To be noted: for IC50: IC50 ecNadD; for inhibition at 100 µM: read-out: INHIBITION (%) E. coli. It counts as biochemical.
The next experiment addresses baNadD (Bacillus anthracis, UniProt C3L5T6). In words: biochemical. Format: biochemical. As to conditions: for IC50: IC50 baNadD; for inhibition at 50 µM: read-out: INHIBITION (%) B. anthracis.

Chain of baNadD (C3L5T6 whole entry, looked up): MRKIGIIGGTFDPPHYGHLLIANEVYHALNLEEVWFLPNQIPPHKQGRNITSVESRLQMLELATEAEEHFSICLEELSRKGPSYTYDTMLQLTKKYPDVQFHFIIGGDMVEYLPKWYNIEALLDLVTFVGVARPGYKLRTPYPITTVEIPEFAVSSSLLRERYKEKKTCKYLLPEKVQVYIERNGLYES

On to `NS(=O)(=O)c1ccc2nc(NC(=O)CCc3ccccc3)sc2c1` [compound 140], for which the “[…]. coli” value on ecNadD stood at 6%. The “[…]. anthracis” value at baNadD is 0%.
The like results for `N=C(NNS(=O)(=O)c1ccccc1)c1ccccn1` [compound 161] were, in that order, 4% and 68%.
The like results for `Nc1nc(SCC(=O)NCC2CCCO2)n[nH]1` (stereo not shown) [compound 173] were, in that order, 3% and 0%.
A word on the IC50: it is the point on the concentration scale where inhibition reaches its midpoint. Read a high IC50 as weaker potency in that assay. By inhibition is commonly meant the drop in the measured response relative to a control, in per cent. `O=C(CCC(=O)Nc1ccc(I)cc1)N/N=C/c1c2ccccc2cc2ccccc12` [compound 001]: on ecNadD, it took 15 µM to reach half-maximal inhibition (IC50) and the inhibition at 100 µM was 79%. In addition, on baNadD, 21 µM corresponded to half-maximal inhibition (IC50) and the inhibition at 50 µM was 88%.
Turning to `Nc1c(C(=O)Nc2ccc(Cl)cc2)sc2nc(-c3ccc(F)cc3)ccc12` [03_08], on ecNadD, the half-maximal inhibitory concentration (IC50) is > 200 µM and the inhibition at 100 µM came out at 68%. For the same molecule, at baNadD, the IC50 was > 200 µM and the inhibition at 50 µM worked out at 28%.
In the case of `O=C1Nc2ccccc2/C1=C/NCc1ccccc1` [15_16], the inhibition at 100 µM on ecNadD came to 11%. Further, at baNadD, the inhibition at 50 µM was found to be 6%.
In the case of `NS(=O)(=O)c1ccc(NC(=O)CCc2ccccc2)cc1` [compound 081], the “[…]. coli” value at ecNadD is 11%. Moreover, the “[…]. anthracis” value on baNadD is recorded as 0%.
For `O=C(CSc1n[nH]c(=O)[nH]c1=O)N/N=C\c1ccc(Br)cc1` [compound 189] the same measures were 1% and 0%.
For `CC(=O)c1ccc(NC(=O)CC(NCc2cccnc2)C(=O)O)cc1` (stereo not shown) [compound 127] the same measures were 7% and 59%.
For `COc1cccc(C=C2C(=O)NC(=O)NC2=O)c1OCC(=O)O` [compound 098] the same measures were 10% and 13%.
For `O=c1[nH]c(SCc2nc3ccccc3[nH]2)nc2ccccc12` [compound 026], the “[…]. coli” value at ecNadD was 23%. In addition, the “[…]. anthracis” value on baNadD worked out at 0%.
As to `O=C(O)c1ccccc1S(=O)(=O)c1ccccc1C(=O)O` [compound 130], the “[…]. coli” value at ecNadD is reported as 7%. The “[…]. anthracis” value at baNadD was found to be 28%.
`CS(=O)(=O)NCCOc1ccc(S(=O)(=O)NCc2ccccc2)cc1` [compound 179]: at ecNadD, the “[…]. coli” value was 3%. At baNadD, the “[…]. anthracis” value was 0%.
Regarding `O=[N+]([O-])c1ccc2[nH]c(CCc3nc4cc([N+](=O)[O-])ccc4[nH]3)nc2c1` [compound 252], the “[…]. coli” value at ecNadD stood at 0%. Further, the “[…]. anthracis” value at baNadD is given as 0%.
For the molecule `O=C(NCCc1nc2ccccc2[nH]1)c1cccs1` [compound 079], on ecNadD, the “[…]. coli” value is reported as 12%. The “[…]. anthracis” value at baNadD turned out to be 0%.
For the molecule `Cc1ccc(NC(=O)CCC(=O)N/N=C/c2cccc(Br)c2)cc1` [01_08], the inhibition at 100 µM at ecNadD was determined as 75%. Moreover, the inhibition at 50 µM on baNadD was found to be 74%.
Turning to `CCOc1cc(/C=N/O)cc(I)c1O` [compound 045], at ecNadD, the “[…]. coli” value is on record as 17%. Moreover, the “[…]. anthracis” value at baNadD amounted to 0%.
For the molecule `Cc1ccc(C)c(N/C=C2\C(=O)Nc3ccccc32)c1` [15_04], on ecNadD, the inhibition at 100 µM stood at 18%. For the same molecule, the inhibition at 50 µM at baNadD turned out to be 26%.
For `CCS(=O)(=O)CCSc1nc2ccccc2o1` [compound 094], on ecNadD, the “[…]. coli” value was found to be 10%. Further, on baNadD, the “[…]. anthracis” value was 0%.
Turning to `Nc1nnc(-c2cc(-c3ccc(Cl)cc3)on2)o1` [compound 183], the “[…]. coli” value at ecNadD was 3%. The “[…]. anthracis” value on baNadD is reported as 7%.
Consider `Nc1c(C(=O)Nc2ccc(F)cc2)sc2nc(-c3ccc(F)cc3)ccc12` [03_25], for which the inhibition at 100 µM on ecNadD was determined as 8%. Also, on baNadD, the inhibition at 50 µM is 1%.
With `Cc1ccccc1N/C=C1\C(=O)Nc2ccccc21` [15_31], at ecNadD, the midpoint of inhibition, the IC50, lay at 118 µM and the inhibition at 100 µM was found to be 7%. Also, on baNadD, the 50% inhibitory concentration (IC50) was 112 µM and the inhibition at 50 µM came out at 27%.
With `Nc1c(C(=O)Nc2ccc(F)cc2F)sc2nc(-c3cccs3)ccc12` [03_07], at ecNadD, the 50% inhibitory concentration (IC50) stood at 44 µM and the inhibition at 100 µM is 69%. In addition, at baNadD, the half-maximal inhibitory concentration (IC50) was 18 µM and the inhibition at 50 µM came out at 83%.
With `O=C(/C=C/c1ccoc1)c1ccccc1O` [compound 151], the “[…]. coli” value on ecNadD was 5%. Moreover, the “[…]. anthracis” value at baNadD turned out to be 0%.
The like results for `COc1ccc(S(=O)(=O)Nc2ccc(C(N)=O)cc2)cc1Cl` [compound 139] were, in that order, 6% and 0%.
In the case of `Cc1nc(N)nc(O)c1Oc1ccccc1` [compound 102], the “[…]. coli” value on ecNadD is 9%. The “[…]. anthracis” value at baNadD worked out at 6%.
For the molecule `CC(=O)Nc1ccc(NS(=O)(=O)c2ccc(O)c(C(=O)O)c2)cc1` [compound 035], the “[…]. coli” value on ecNadD worked out at 20%. In addition, the “[…]. anthracis” value on baNadD is 0%.
On to `NC(=S)NNC(=O)c1ccccc1C(=O)O` [compound 136], for which the “[…]. coli” value at ecNadD came to 6%. For the same molecule, the “[…]. anthracis” value on baNadD is 64%.
As for `NNC(=O)CNC(=O)CNS(=O)(=O)c1ccc(Cl)cc1` [compound 250], the “[…]. coli” value at ecNadD is 0%. Moreover, the “[…]. anthracis” value on baNadD was determined as 0%.
For the molecule `CN1C(=O)S/C(=C\c2ccc(OCC(=O)O)c(I)c2)C1=O` [compound 069], at ecNadD, the “[…]. coli” value is 13%. The “[…]. anthracis” value on baNadD is on record as 7%.
Turning to `CC(C)N/C=C1\C(=O)Nc2ccccc21` [15_34], the inhibition at 100 µM at ecNadD was determined as 4%. In addition, the inhibition at 50 µM on baNadD came out at 9%.
`Cn1ccc(NC(=O)Nc2ccc(Cl)cc2Cl)n1` [compound 091]: the “[…]. coli” value on ecNadD was 10%. For the same molecule, the “[…]. anthracis” value on baNadD is given as 0%.
For `O=C1Nc2ccccc2/C1=C/Nc1ccccc1F` [15_17], on ecNadD, the inhibition at 100 µM came to 11%. In addition, the inhibition at 50 µM at baNadD stood at 22%.
With `O=S(=O)(NCCc1ccccc1)c1ccc(Br)s1` [compound 307], at ecNadD, the “[…]. coli” value was determined as 0%. Also, on baNadD, the “[…]. anthracis” value is reported as 0%.
With `O=C(Cn1cnc2ccccc2c1=O)Nc1cccc(C(=O)O)c1` [compound 280], at ecNadD, the “[…]. coli” value stood at 0%. In addition, on baNadD, the “[…]. anthracis” value is recorded as 0%.
In the case of `CCc1ccc(N/C=C2\C(=O)Nc3ccccc32)cc1` [15_24], the inhibition at 100 µM at ecNadD is 9%. For the same molecule, the inhibition at 50 µM on baNadD was 17%.
For `Nc1nonc1C(=O)N/N=C/c1cc(Br)cc(Br)c1O` [compound 040], the “[…]. coli” value on ecNadD was found to be 19%. For the same molecule, on baNadD, the “[…]. anthracis” value stood at 20%.
`Oc1ccc(Br)cc1/C=N/Nc1nnn[nH]1` [compound 060]: the “[…]. coli” value at ecNadD turned out to be 15%. The “[…]. anthracis” value at baNadD turned out to be 0%.
Consider `O=C(O)c1ccc2[nH]c(CCc3nc4cc(C(=O)O)ccc4[nH]3)nc2c1` [compound 235], for which the “[…]. coli” value at ecNadD is reported as 0%. For the same molecule, the “[…]. anthracis” value at baNadD is 0%.
With `NS(=O)(=O)c1ccc(/N=C/c2ccc(Br)cc2)cc1` [compound 214], the “[…]. coli” value at ecNadD is recorded as 0%. Further, at baNadD, the “[…]. anthracis” value is listed as 0%.
As to `Nc1c(C(=O)Nc2ccc(Cl)c(Cl)c2)sc2nc(-c3cccs3)ccc12` [03_09], on ecNadD, the inhibition at 100 µM amounted to 60%. Besides, at baNadD, the inhibition at 50 µM stood at 63%.
Take `Nc1c(C(=O)Nc2cccc(Cl)c2)sc2nc(-c3cccs3)ccc12` [03_12]: on ecNadD, the half-inhibitory concentration (IC50) was determined as 71 µM and the inhibition at 100 µM came to 53%. For the same molecule, at baNadD, the concentration for half-maximal inhibition (IC50) came out at 15 µM and the inhibition at 50 µM is 89%.
Regarding `CC(c1ccccc1)c1nnc(N)s1` (stereo not shown) [compound 242], the “[…]. coli” value on ecNadD amounted to 0%. In addition, the “[…]. anthracis” value at baNadD was found to be 18%.
Consider `O=C(O)/C=C/c1ccc(S(=O)(=O)NCc2ccc3c(c2)OCO3)cc1` [compound 070], for which the “[…]. coli” value on ecNadD was found to be 13%. In addition, the “[…]. anthracis” value on baNadD is 5%.
For `Nc1c(C(=O)Nc2ccc(F)cc2F)sc2nc(-c3ccncc3)ccc12` [03_27], the inhibition at 100 µM on ecNadD was found to be 0%. At baNadD, the inhibition at 50 µM worked out at 20%.
Take `CC(/C=N/NC(=O)CCC(=O)Nc1ccc(Br)cc1)c1ccc2ccccc2c1` (stereo not shown) [01_05]: at ecNadD, the concentration for half-maximal inhibition (IC50) came to 88 µM and the inhibition at 100 µM is 78%. Besides, the inhibition at 50 µM at baNadD was found to be 76%.
As for `Cc1ccc(C(=O)Nc2ccccc2)cc1S(=O)(=O)Nc1ccccn1` [compound 071], the “[…]. coli” value on ecNadD is listed as 12%. Further, the “[…]. anthracis” value on baNadD is given as 7%.
As to `CSc1ccccc1NC(=S)Nc1cccnc1` [compound 224], the “[…]. coli” value at ecNadD was 0%. Besides, at baNadD, the “[…]. anthracis” value was determined as 0%.
Consider `Nc1ccc(/C=C/c2cccc(C(=O)O)n2)cc1` [compound 054], for which the “[…]. coli” value at ecNadD turned out to be 15%. For the same molecule, the “[…]. anthracis” value at baNadD turned out to be 27%.
The like results for `O=C(O)CCC(C(=O)O)N1C(=O)c2cc(Cl)c(Cl)cc2C1=O` (stereo not shown) [compound 029] were, in that order, 22% and 0%.
For `Nc1c(C(=O)Nc2ccc(F)cc2)sc2nc(-c3ccncc3)ccc12` [03_06], on ecNadD, the half-inhibitory concentration (IC50) was > 200 µM and the inhibition at 100 µM is 80%. Moreover, on baNadD, the IC50 was > 200 µM and the inhibition at 50 µM is 40%.
On to `Sc1nnc(-c2ccncc2)n1-c1ccccc1Cl` [compound 042], for which the “[…]. coli” value on ecNadD is 19%.
The same measure, in the same setting: with `O=C(CCS(=O)(=O)c1ccc(Br)s1)NCc1cccs1` [compound 285] the figure was 0%; with `Nc1n[nH]c(N)c1/N=N/c1ccccc1` [compound 271], 0%.
For `O=C(O)CNN=C(C(=O)CCC(=O)Nc1ccccc1Cl)c1ccc(C=NN(CC(=O)O)C(=O)CCC(=O)Nc2ccccc2Cl)cc1` [1—02—2, {N′-(4-{Carboxymethyl-[3-(2-chloro-phenylcarbamoyl)-propionyl]-hydrazonomethyl}-benzylidene)-N-[3-(2-chloro-phenylcarbamoyl)-propionyl]-hydrazino}-acetic acid], at baNadD, the “inhibitory activity against baNadD” value was “did not inhibit”.
Regarding `O=C(O)CN(N=Cc1cccc2ccccc12)C(=O)CCC(=O)Nc1ccccc1Cl` [1—02—3, {N-[3-(2-Chloro-phenylcarbamoyl)-propionyl]-N′-naphthalen-1-ylmethylene-hydrazino}-acetic acid], at baNadD, the IC50 was > 200 µM.
Consider `Nc1n[nH]c(N)c1/N=N/c1ccccc1` [compound 272], for which the “[…]. anthracis” value at baNadD turned out to be 23%.
